In patent US20240287614A1, “RECIPROCAL MICRORNA-MRNA PAIRINGS AS BIOMARKERS AND THERAPEUTIC TARGETS IN CANCER” (UNIVERSITY OF MARYLAND, EASTERN SHORE, priority 2023, published 2024):

How the values were obtained:
PIK3CB = test: RT-qPCR of PIK3CB expression after miRNA mimic transfection; assay type: cell-based, human; details: African American and European American prostate cancer cells; vs nonsense/scrambled (NS) miRNA control
Description: (§1) […] RC77 T/E, a primary prostate cancer cell line derived from a patient, was kindly provided by Dr. Johng Rhim at Center for Prostate Disease Research (CPDR) in Rockville, MD. LNCaP and PC-3 were served as prostate cancer cell line models, and RC77 T/E and MDA PCa 2b were served as prostate cancer cell models in the study. The cells were cultured in specific cell culture media, LNCaP was cultured in RPMI with 10% fetal bovine serum (FBS), PC-3 was cultured in DMEM with 10% FBS, MDA PCa 2b were cultured in BRFF-HPC1 with 20% FBS and RC77 T/E was cultured in Keratinocyte SFM with Human Recombinant Epidermal Growth Factor (EGF 1-53) and Bovine Pituitary Extract (BPE). Cells were maintained at 37° C. in a 5% CO2 incubator. LNCaP, PC-3 and MDA PCa 2b cells were seeded at density 3×10^4 cells/well in 6-well plates. RC77 T/E cells were seeded at density 5×10^4 cells/well in 6-well plates. […]
(§2) For the measurement of gene expression level, total RNA was isolated using miRNeasy Mini Kit (50) (Qiagen) from the prostate cancer cells used in the study. Quantification of total RNA samples were done using NanoVue Plus spectrophotometer (GE Healthcare). […] Reverse transcription was performed using iScript Reverse Transcription Supermix kit (Bio-Rad) to generate cDNA then followed by performing quantitative PCR (qPCR) assays using SsoAdvanced Universal SYBR Green supermix kit (Bio-Rad). […]

HIF1A [1] = test: RT-qPCR of HIF1A expression after miRNA mimic transfection; assay type: cell-based, human; details: African American and European American prostate cancer cells; vs nonsense/scrambled (NS) miRNA control
Description: as §1, §2

IGFBP2 [2] = test: RT-qPCR of IGFBP2 expression after miRNA mimic transfection; assay type: cell-based, human; details: African American and European American prostate cancer cells; vs nonsense/scrambled (NS) miRNA control
Description: as §1, §2

PI3Kβ = test: Western blot of PI3Kβ in transfected prostate cancer cells; assay type: cell-based, human; details: mimic transfected vs NS transfected
Description: as §1
(§3) For measurement of the gene expression at protein level, proteins were extracted using M-PER Mammalian Protein Extraction Reagent (Thermo Fisher Scientific) with protease and phosphatase inhibitor cocktail (Thermo Fisher Scientific). Protein concentrations were quantified using BCA assay kit (Thermo Fisher Scientific). […]

HIF1A [3] = test: Western blot of HIF1a in transfected prostate cancer cells; assay type: cell-based, human; details: mimic transfected vs NS transfected
Description: as §1, §3

IGFBP2 [4] = test: Western blot of IGFBP2 in transfected prostate cancer cells; assay type: cell-based, human; details: mimic transfected vs NS transfected
Description: as §1, §3

[5] = system: prostate cancer (LNCaP and PC-3) and prostate cancer (RC77 T/E and MDA PCa 2b) cell lines; test: BrdU-labeling cell proliferation assay; assay type: cell-based, human; details: PC-3, RC77 T/E and MDA PCa 2b, 48 h transfection, vs NS
Description: as §1
LNCaP, PC-3, RC77 T/E and MDA PCa 2b cells were seeded at density 3×10^4 cells/well in 6-well culture plates. […] 100 μL of stop solution was used to stop further reaction and followed by checking absorbance at dual wavelengths of 450 nm and 540 nm using Multiskan FC microplate photometer (Thermo Scientific).

[6] = system: prostate cancer (LNCaP and PC-3) and prostate cancer (RC77 T/E and MDA PCa 2b) cell lines; test: Caspase 3/7 activity-based apoptosis assay, prostate cancer cell lines; set-up: species or system human; details: for apoptosis (caspase 3/7 activity), docetaxel treatment alone: without miRNA mimic/antagomir transfection
Description: […] RC77 T/E, a primary prostate cancer cell line derived from a patient, was kindly provided by Dr. Johng Rhim at Center for Prostate Disease Research (CPDR) in Rockville, MD. LNCaP and PC-3 were served as prostate cancer cell line models, and RC77 T/E and MDA PCa 2b were served as prostate cancer cell models in the study. The cells were cultured in specific cell culture media, LNCaP was cultured in RPMI with 10% fetal bovine serum (FBS), PC-3 was cultured in DMEM with 10% FBS, MDA PCa 2b were cultured in BRFF-HPC1 with 20% FBS and RC77 T/E was cultured in Keratinocyte SFM with Human Recombinant Epidermal Growth Factor (EGF 1-53) and Bovine Pituitary Extract (BPE). Cells were maintained at 37° C. in a 5% CO2 incubator. LNCaP, PC-3 and MDA PCa 2b cells were seeded at density 3×10^4 cells/well in 6-well plates. RC77 T/E cells were seeded at density 5×10^4 cells/well in 6-well plates. The cells were allowed to grow for 24 h and then were either transfected with miR-34a-5p mimic, miR-99b-5p mimic, or miR-96-5p antagomir using DharmaFECT4 transfection reagent (Dharmacon), according to the manufacturer's protocol. After 24 h, the cells were replaced with fresh media then incubated for 24 h. miR-34a-5p mimic, miR-99b-5p mimic, miR-96-5p antagomir, and nonsense miRNA mimic and antagomir controls were purchased from Ambion. Nonsense/scrambled miRNA mimic and antagomir were used as negative controls.
For the measurement of apoptosis initiation by transfection of miRNA mimic or antagomir in prostate cancer cells, the transfected cells 5000 cells/well were seeded onto 96-well cell culture plates (Corning) and then incubated overnight. The miRNA mimic/antagomir transfected cells were then treated with vehicle or […] of Docetaxel. 24 h after the vehicle or drug treatment, the apoptosis assays were performed using Apo-ONE Caspase-3/7 Assay Kit (Promega Corporation) according to the protocol described by the manufacturer. 100 μL of homogeneous Caspase-3/7 reagent was added to the sample plate and incubated at room temperature for 1 h. Fluorescence was detected for measuring the apoptosis state (Caspase 3/7 activity) using Biotek Synergy HT Microplate Reader (BioTek) at wavelengths of 499 nm and 521 nm for excitation and emission, respectively.

[7] = RC77 T/E and MDA PCa 2b, 11 mM of Docetaxel, 24 h

Molecule: miR-34a-5p mimic: miRNA mimic of miR-34a-5p (SEQ ID NO: 1, UGGCAGUGUCUUAGCUGGUUGU), purchased from Ambion (listed as RNA, chemistry not given here; listed as Homo sapiens)
- PIK3CB expression (RT-qPCR) (PIK3CB): decreased
- HIF1A expression (RT-qPCR) (HIF1A [1]): decreased
- IGFBP2 expression (RT-qPCR) (IGFBP2 [2]): decreased
- PI3Kβ protein level (Western blot) (PI3Kβ): downregulated
- HIF1a protein level (Western blot) (HIF1A [3]): downregulated
- IGFBP2 protein level (Western blot) (IGFBP2 [4]): downregulated
- cell proliferation (BrdU labeling) [5]: reduction
- docetaxel-induced cytotoxicity (caspase 3/7 activity), combination with docetaxel ([6]; LNCaP cells, 11 mM of Docetaxel, 24 h): further enhanced
- apoptosis (caspase 3/7 activity), transfection in the presence of docetaxel [6, 7]: significantly induced apoptosis
- cell apoptosis (caspase 3/7 activity) compared with NS transfected cells ([6]; absence of docetaxel (vehicle control), LNCaP, PC-3, RC77 T/E, MDA PCa 2b): overall generalized or significant increase

Molecule: CC(=O)O[C@@]12CO[C@@H]1C[C@H](O)[C@@]1(C)C(=O)[C@H](O)C3=C(C)[C@@H](OC(=O)[C@H](O)[C@@H](NC(=O)OC(C)(C)C)c4ccccc4)C[C@@](O)([C@@H](OC(=O)c4ccccc4)[C@H]21)C3(C)C [docetaxel, reference compound]
- apoptosis (caspase 3/7 activity), docetaxel treatment alone ([6]; LNCaP, 11 mM of Docetaxel, 24 h): significantly induced apoptosis
- apoptosis (caspase 3/7 activity), docetaxel treatment alone [6, 7]: not
- apoptosis (caspase 3/7 activity), docetaxel treatment alone ([6]; androgen-independent PC-3, 11 mM of Docetaxel, 24 h): not
